“And” between values parts separate entries of the source, which are not always exact repeats. Equal values may be shown once. “Also recorded” adds a separate entry of the source. Where a name gives a salt, the structure may show the parent alone. Read-outs that look alike come from different tables or passages of the source.
Experiments:
[1] = target: α2AR-D4.7R (Homo sapiens, UniProt P08913+P21917); assay: CODA-RET Gαi1 activation, α2AR-D4.7R heteromer; format: cell-based; conditions: for Emax: Gαi1, Table 2
Chain of α2AR-D4.7R (Homo sapiens, UniProt P08913+P21917) (P62873 2-340, one chain of several): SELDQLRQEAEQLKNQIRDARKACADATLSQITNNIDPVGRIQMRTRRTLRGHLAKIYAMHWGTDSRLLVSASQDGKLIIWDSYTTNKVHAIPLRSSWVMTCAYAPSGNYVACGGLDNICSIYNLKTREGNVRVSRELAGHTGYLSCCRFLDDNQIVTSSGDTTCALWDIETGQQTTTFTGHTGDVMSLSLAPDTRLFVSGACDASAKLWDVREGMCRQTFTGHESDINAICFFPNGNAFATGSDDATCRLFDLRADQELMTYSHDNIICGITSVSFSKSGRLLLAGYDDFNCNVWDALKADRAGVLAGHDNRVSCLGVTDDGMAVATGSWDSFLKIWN
Chain of α2AR-D4.7R (Homo sapiens, UniProt P08913+P21917) (P63096 2-354, one chain of several, further chain): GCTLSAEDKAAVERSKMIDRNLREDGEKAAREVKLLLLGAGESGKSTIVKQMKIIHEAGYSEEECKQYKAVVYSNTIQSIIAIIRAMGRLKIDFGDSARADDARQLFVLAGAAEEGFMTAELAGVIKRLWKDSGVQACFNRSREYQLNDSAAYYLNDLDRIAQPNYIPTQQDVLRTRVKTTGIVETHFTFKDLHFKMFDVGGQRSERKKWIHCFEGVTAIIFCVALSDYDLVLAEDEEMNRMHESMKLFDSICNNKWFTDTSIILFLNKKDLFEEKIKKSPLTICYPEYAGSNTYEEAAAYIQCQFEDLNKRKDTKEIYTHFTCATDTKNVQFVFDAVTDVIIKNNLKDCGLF
Chain of α2AR-D4.7R (Homo sapiens, UniProt P08913+P21917) (P59768 2-68, one chain of several, further chain): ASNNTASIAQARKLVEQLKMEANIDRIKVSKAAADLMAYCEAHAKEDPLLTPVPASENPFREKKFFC

[2] = target: T1, α2AR-D4.4R cells (Homo sapiens, UniProt P08913+P21917); assay: Forskolin-induced cAMP accumulation, α2AR-D4.4R cells; format: cell-based; conditions: agonists 100 nM, forskolin 0.5 μM
T1 sequence (P08913 1-465): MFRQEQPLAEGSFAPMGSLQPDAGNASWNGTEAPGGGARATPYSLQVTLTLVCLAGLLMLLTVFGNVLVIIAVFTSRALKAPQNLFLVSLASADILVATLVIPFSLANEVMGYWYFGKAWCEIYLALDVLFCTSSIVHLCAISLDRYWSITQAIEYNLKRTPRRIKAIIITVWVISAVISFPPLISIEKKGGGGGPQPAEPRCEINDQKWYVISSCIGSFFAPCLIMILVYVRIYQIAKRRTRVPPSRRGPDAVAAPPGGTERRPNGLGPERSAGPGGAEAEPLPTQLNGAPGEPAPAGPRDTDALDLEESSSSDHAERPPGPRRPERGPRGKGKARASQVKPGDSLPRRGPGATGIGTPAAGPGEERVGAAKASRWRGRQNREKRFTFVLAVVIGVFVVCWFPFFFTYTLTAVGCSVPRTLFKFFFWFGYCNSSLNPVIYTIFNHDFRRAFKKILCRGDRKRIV
T1 sequence (P21917 1-419): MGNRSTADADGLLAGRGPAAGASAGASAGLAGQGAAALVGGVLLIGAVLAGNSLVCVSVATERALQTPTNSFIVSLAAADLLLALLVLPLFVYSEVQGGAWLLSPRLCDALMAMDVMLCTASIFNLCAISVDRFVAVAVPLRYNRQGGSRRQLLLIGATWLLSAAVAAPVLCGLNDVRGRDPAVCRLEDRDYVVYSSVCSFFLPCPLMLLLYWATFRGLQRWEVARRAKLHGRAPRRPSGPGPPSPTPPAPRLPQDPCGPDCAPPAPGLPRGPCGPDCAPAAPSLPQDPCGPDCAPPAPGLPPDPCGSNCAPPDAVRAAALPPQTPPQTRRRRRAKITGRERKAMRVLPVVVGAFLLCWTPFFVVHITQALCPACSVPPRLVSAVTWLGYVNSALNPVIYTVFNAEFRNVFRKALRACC

[3] = target: T2, D4.7R (Homo sapiens, UniProt P21917); assay: Receptor-G protein BRET, D4.7R fused to RLuc with Gαi1 or Gαo1; format: cell-based
T2 sequence (P21917 1-264 limits assumed): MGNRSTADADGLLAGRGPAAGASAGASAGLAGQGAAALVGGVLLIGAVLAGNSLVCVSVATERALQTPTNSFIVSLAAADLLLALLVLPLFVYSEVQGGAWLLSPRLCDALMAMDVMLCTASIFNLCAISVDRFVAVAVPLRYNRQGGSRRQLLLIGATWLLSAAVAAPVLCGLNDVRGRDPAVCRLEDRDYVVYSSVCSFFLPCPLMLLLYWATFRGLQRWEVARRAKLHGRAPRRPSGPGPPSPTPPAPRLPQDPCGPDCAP
T2 sequence (P21917 297-419 limits assumed): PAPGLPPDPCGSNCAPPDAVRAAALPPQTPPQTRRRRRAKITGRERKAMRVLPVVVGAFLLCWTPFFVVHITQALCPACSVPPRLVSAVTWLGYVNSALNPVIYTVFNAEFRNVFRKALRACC

[4] = target: T3, D4.4R (Homo sapiens, UniProt P21917); assay: Receptor-G protein BRET, D4.4R fused to RLuc with Gαi1 or Gαo1; format: cell-based
T3 sequence (P21917 1-419): T1 sequence (P21917 1-419)

[5] = target: T4, D4.4R-D4.4R (Homo sapiens, UniProt P21917); assay: CODA-RET Gαi1 activation, D4.4R-D4.4R homomer; format: cell-based; conditions: A-412997 1 μM; shift to the right of DA curve
T4 sequence (P21917 1-419) 1: T1 sequence (P21917 1-419)
T4 sequence (P21917 1-419) 2: T1 sequence (P21917 1-419)

[6] = target: T5, α2AR-D4.4R (Homo sapiens, UniProt P08913+P21917); format: binding; conditions: 12°C; control or in presence of A-412997 (30 nM)
T5 sequence (P08913 1-465): T1 sequence (P08913 1-465)
T5 sequence (P21917 1-419): T1 sequence (P21917 1-419)

[7] = target: T1, α2AR-D4.4R cells; assay: ERK1/2 phosphorylation, α2AR-D4.4R cells; format: cell-based; conditions: agonists 300 nM, 5 min
[8] = target: T6, D4.7R-D4.7R (Homo sapiens, UniProt P21917); conditions: A-412997 1 μM; shift to the right of DA curve
T6 sequence (P21917 1-419): T1 sequence (P21917 1-419)

[9] = target: T7, α2R (Ovis aries, UniProt A0ACI6PY47); assay: Competitive inhibition of [3H]RX821002 binding in sheep cortex membranes; conditions: read-out: KDB1 for α2R; vs [3H]RX821002, sheep cortex membranes
T7 sequence (A0ACI6PY47 1-467): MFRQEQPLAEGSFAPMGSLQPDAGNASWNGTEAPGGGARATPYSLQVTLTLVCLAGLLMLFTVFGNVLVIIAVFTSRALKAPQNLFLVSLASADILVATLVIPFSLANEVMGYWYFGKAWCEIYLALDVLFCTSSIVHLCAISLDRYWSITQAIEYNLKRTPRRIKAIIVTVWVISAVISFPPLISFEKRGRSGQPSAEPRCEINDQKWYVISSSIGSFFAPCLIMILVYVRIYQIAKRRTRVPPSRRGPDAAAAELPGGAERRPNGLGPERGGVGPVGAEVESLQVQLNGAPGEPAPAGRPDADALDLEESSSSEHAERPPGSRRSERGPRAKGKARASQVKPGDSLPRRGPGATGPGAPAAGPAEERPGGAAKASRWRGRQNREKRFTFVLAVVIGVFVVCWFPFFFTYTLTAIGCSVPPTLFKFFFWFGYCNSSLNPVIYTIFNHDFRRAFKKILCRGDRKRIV

[10] = target: T5, α2AR-D4.4R; assay: CODA-RET Gαo1 activation, α2AR-D4.4R heteromer; format: cell-based; conditions: Fig. 4D
[11] = test system: cortical slices from hD4.7R mice; assay: ERK1/2 phosphorylation in cortical brain slices from knock-in hD4.7R mice; set-up: species or system mouse; conditions: agonists 1 μM
[12] = target: T3, D4.4R; format: binding
[13] = target: T8, α2AR-α2AR (Homo sapiens, UniProt P08913); assay: CODA-RET Gαi1 activation, α2AR-α2AR homomer; format: cell-based; conditions: for Emax: Gαi1, Table 2
T8 sequence (P08913 1-465) 1: T1 sequence (P08913 1-465)
T8 sequence (P08913 1-465) 2: T1 sequence (P08913 1-465)

[14] = target: T5, α2AR-D4.4R; assay: CODA-RET Gαi1 activation, α2AR-D4.4R heteromer; format: cell-based; conditions: for Emax: Gαi1, Table 2
[15] = test system: α2AR-D4.7R; assay: CODA-RET Gαo1 activation, α2AR-D4.7R heteromer; format: cell-based, human; conditions: Fig. 4E
[16] = target: T9, α2AR (with D4.7R) (Homo sapiens, UniProt P08913); assay: BRET α2AR-RLuc and Gαo1-mVenus, cells co-transfected with unfused D4.7R; format: cell-based; conditions: in the presence of D4.7R
T9 sequence (P08913 1-465): T1 sequence (P08913 1-465)

[17] = target: T10, α2AR (with D4.4R) (Homo sapiens, UniProt P08913); assay: BRET α2AR-RLuc and Gαo1-mVenus, cells co-transfected with unfused D4.4R; format: cell-based; conditions: in the presence of D4.4R
T10 sequence (P08913 1-465): T1 sequence (P08913 1-465)

[18] = test system: α2AR-D4.7R; format: binding, human; conditions: 12°C; control or in presence of A-412997 (30 nM)
[19] = target: T11, human α2AR (Homo sapiens, UniProt P08913); assay: [3H]RX821002 saturation binding in HEK-293T cells transfected with human α2AR; conditions: read-out: KDA1, n=3
T11 sequence (P08913 1-465): T1 sequence (P08913 1-465)

[20] = target: human α2A adrenoceptor fused to Renilla luciferase RLuc8 (α2AR-RLuc) (human) (UniProt P08913); assay: FRET or BRET
[21] = cells pretreated with antagonist

Compound: Cc1cccc(NC(=O)CN2CCC(c3ccccn3)CC2)c1.Cl.Cl [A-412997, A-412997 dihydrochloride]
- Emax [1]: 0 % of NE
- inhibition of forskolin-induced cAMP accumulation [2]: more effective than dexmedetomidine
- Gαi1 activation ([3]; Gαi1-mVenus): did not promote
- Gαo1 activation ([3]; Gαo1-mVenus): did promote significant Gαo1 activation
- Gαi1 activation ([4]; Gαi1-mVenus): did not promote
- Gαo1 activation ([4]; Gαo1-mVenus): did promote significant Gαo1 activation
- effect on DA-mediated Gi protein activation [5]: competitive antagonist of DA
- koff1 of [3H]RX821002 [6]: 0.25±0.07 ^* min^−1
- koff2 of [3H]RX821002 [6]: 0.036±0.007 ^* min^−1
- ERK1/2 phosphorylation [7]: more effective in α2AR-D4.4R cells than in α2AR-D4.7R cells
- effect on DA-mediated Gi protein activation [8]: competitive antagonist of DA
- Kd [9]: 1400 nM
- Gαo1 activation [10]: promoted Gαo1 activation
- MAPK activation (ERK1/2 phosphorylation) [11]: significantly weaker than of dexmedetomidine
- Kd ([12]; read-out: KDB1, vs [3H]YM-09151-2, HEK-293T co-expressing α2AR and D4.4R, n=3): 1.1 ± 0.1 nM

Compound: CC1c2ccccc2CN1CC1=NCCN1.O=C(O)/C=C\C(=O)O (stereo not shown) [BRL44408, BRL 44408 maleate]
- antagonist effect on NE- and DA-induced Gαi1 activation [1, 21]: significantly decreased the potency of NE and DA
- antagonist effect on NE- and DA-induced Gαi1 activation [13, 21]: significantly decreased the potency of NE and DA
- antagonist effect on NE- and DA-induced Gαi1 activation [14, 21]: significantly decreased the potency of NE and DA

Compound: Clc1cccc(Cl)c1N=C1NCCN1 [Clonidine, Clonidine hydrochloride]
- Emax [13]: 18±2 % of NE
- Emax [14]: 0 % of NE
- Emax ([14]; listed as clonidine): complete lack of efficacy

Compound: Cc1cccc([C@H](C)c2cnc[nH]2)c1C [Dexmedetomidine, Dexmedetomidine hydrochloride]
- Gαo1 activation [15]: able to activate Gαo1
- α2AR-mediated Gαo1 activation [16]: promotes a significant α2AR-mediated Gαo1 activation
- Emax [13]: 26±3 % of NE
- α2AR-mediated Gαo1 activation [17]: promotes a significant α2AR-mediated Gαo1 activation
- Kd [12]: 2000 to 6000 nM

Compound: N=C(N)NC(=O)Cc1c(Cl)cccc1Cl [Guanfacine, Guanfacine hydrochloride]
- Emax [1]: 20±3 % of NE
- Emax [13]: 14±2 % of NE
- Emax [14]: 0 % of NE
- Emax ([14]; listed as guanfacine): complete lack of efficacy

Compound: NC[C@H](O)c1ccc(O)c(O)c1 [NE, norepinephrine]
- increase in NE potency on α2AR-D4.7R compared with α2AR-D4.4R ([1]; Gαi1 CODA-RET): five-fold
- Emax [13]: 100±3 % of NE

Compound: Cc1cccc(C(=O)NCN2CCN(c3ccccc3C#N)CC2)c1 [PD168077]
- Kd [9]: 80 ± 10 nM

Compound: CCCN[C@H]1CCc2nc(N)sc2C1 [Pramipexole, Pramipexole dihydrochloride]
- Emax [1]: 48±5 % of NE
- Emax [14]: 28±3 % of NE

Compound: COC1(C2=NCCN2)COc2ccccc2O1.Cl (stereo not shown) [RX821002, RX 821002 hydrochloride]
- displacement of [3H]YM-09151-2 ([12]; any concentration up to 10 μM): did not displace

Compound: CCCN(CCC)CCc1cccc2c1CC(=O)N2 [Ropinirole]
- Emax [13]: ineffective
- EC50 [14]: 400 ± 200 nM

Compound: CCCN(CCc1cccs1)[C@H]1CCc2c(O)cccc2C1 [Rotigotine, Rotigotine hydrochloride]
- Emax [1]: did not produce any response and 0 % of NE
- Emax [13]: 0 % of NE
- Emax ([13]; listed as rotigotine): ineffective; also recorded: did not produce any response
- EC50 [14]: 7 ± 5 nM
- Emax [14]: 13±2 % of NE
- Emax ([14]; listed as rotigotine): small Gαi1 protein activation

Compound: COC1(C2=NCCN2)COc2ccccc2O1 (stereo not shown) [[^3H]RX821002]
- RT (residence time) of [3H]RX821002 [18]: 17 min
- koff of [3H]RX821002 [18]: 0.000967 ± 3.3e-05 s⁻¹
- RT1 (residence time) of [3H]RX821002 [6]: 7 min
- RT2 (residence time) of [3H]RX821002 [6]: 50 min
- koff1 of [3H]RX821002 [6]: 0.14 ± 0.03 min⁻¹
- koff2 of [3H]RX821002 [6]: 0.020 ± 0.004 min⁻¹
- Kd [19]: 0.62 ± 0.05 nM

Compound: human dopamine D4.7 receptor fused to YFP (D4.7R-YFP)
- BRET50 [20]: 60

— paper PMC9885860 (Pharmacological research, 2021)
